Measured values taken from US20220009874A1, “CATALYTIC SYNTHESIS OF ANTI-UV AND ANTIOXIDANT CONJUGATED 8-8 DIMERS IN A GREEN SOLVENT” (INSTITUT DES SCIENCES ET INDUSTRIES DU VIVANT ET DE …, priority 2018, published 2022).

Test: UV absorbance of the dimers in ethanol compared with sinapoyl malate
Format: physicochemical
Settings: 10 μmol·L^−1 in ethanol; for absorption band: FIG. 1
Text: a. […] A change of the R3 radical can also affect these properties (FIG. 11).

absorption band	SMILES	anti-UV properties (UV absorbance) compared with sinapoyl malate (FIGS. 1 to 16)
200-400 nm	CCOC(=O)C(=Cc1cc(OC)c(O)c(OC)c1)C(=Cc1cc(OC)c(O)c(OC)c1)C(=O)OCC [ethyl β-β disinapate]	higher anti-UV properties than sinapoyl malate
200-370 nm	COc1cc(/C=C/C(=O)OC(CC(=O)O)C(=O)O)cc(OC)c1O (stereo not drawn) [sinapoyl malate, reference compound]	–
